The text below walks through data of patent US6664224B2, “Quaternary ammonium salt and process for the preparation thereof” (priority 2000, dated 2003).

Series [1] deals with Bacillus cereus IFO 3001. Kind of series: Minimum bactericidal concentration (MBC) against bacteria. It counts as cell-based. The conditions noted are these: contact 30° C. 30 minutes, culture 37° C. 24 hours. On the procedure:
(§1) A bacteria solution in the initial stage of logarithmic productive phase which had been adjusted with a nutrient broth according to an ordinary sterilized water dilution method such that the concentration of bacterial suspension reached 10^6 cell/ml was brought into contact with chemical solutions having concentrations which vary stepwise at a temperature of 30° C. for 30 minutes, and then transplanted to a nutrient broth where it was then allowed to stand at a temperature of 37° C. for 24 hours for culture. The nutrient broth was then examined to see if the proliferation of bacteria occurred. Thus, MBC was determined.
(§2) Five kinds of gram-negative bacteria and four kinds of gram-positive bacteria were used as sample bacteria.
(§3) BAMP-6 (Example 12), BAMD-6,8 (Example 13), BAMT-6 (Example 17) and benzalkonium chloride (Comparative Example 1) were determined for MBC value against 5 kinds of gram-negative bacteria and 4 kinds of gram-positive bacteria in the same manner as in Test Example 1.

For series [2], the system named is Bacillus subtilis IFO 3134. The series is described as above. It counts as cell-based. The conditions noted are these: contact 30° C. 30 minutes, culture 37° C. 24 hours. On the procedure:
as §1, §2, §3

The test system of series [3] is Escherichia coli K12 OUT 8401. Described as above. In kind it is cell-based. Conditions: contact 30° C. 30 minutes, culture 37° C. 24 hours. On the procedure:
as §1, §2, §3

In series [4] the test system is Escherichia coli K12 W 3110. The series is described as above. In kind it is cell-based. The conditions noted are these: contact 30° C. 30 minutes, culture 37° C. 24 hours. On the procedure:
as §1, §2, §3

The subject of series [5] is Klebsiella pneumoniae ATCC 13883. The description is as above. In kind it is cell-based. Conditions: contact 30° C. 30 minutes, culture 37° C. 24 hours. On the procedure:
as §1, §2, §3

Series [6] relates to Proteus rettgeri NIT 96. The series is described as above. Conditions: contact 30° C. 30 minutes, culture 37° C. 24 hours. In kind it is cell-based. On the procedure:
as §1, §2, §3

Series [7] has as its system Pseudomonas aeruginosa ATCC 27583. The series is described as above. The conditions noted are these: contact 30° C. 30 minutes, culture 37° C. 24 hours. It counts as cell-based. On the procedure: as §1, §2, §3
Series [8] concerns Staphylococcus aureus IFO 12732. Described as above. In kind it is cell-based. The conditions noted are these: contact 30° C. 30 minutes, culture 37° C. 24 hours. On the procedure:
as §1, §2, §3

The test system of series [9] is Bacillus substilis ATCC 6633. The series is described as above. In kind it is cell-based, Bacillus subtilis. The conditions noted are these: contact 30° C. 30 minutes, culture 37° C. 24 hours. On the procedure:
as §1, §2, §3

In series [10] the test system is Escherichia coli K12 W 3110. The series is described as follows: Minimum development inhibiting concentration (MIC) against bacteria, broth dilution method. In kind it is cell-based. Conditions: 37° C. 24 hours. On the procedure: A bacteria solution in stationary state which had been adjusted with a nutrient broth according to an ordinary broth dilution method such that the concentration of bacterial suspension reached 10^6 cell/ml was added to chemical solutions having concentrations which vary stepwise where it was then allowed to stand at a temperature of 37° C. for 24 hours for culture. The bacteria solution was then examined to see if the proliferation of bacteria occurred. Thus, MIC was determined.
Escherichia coli K12 W 3110 was used as a sample bacterium. Compounds obtained in Examples 1 to 9 and benzalkonium chloride prepared in Comparative Example 1 were used as test samples.
The compounds obtained in Examples 10 to 19 and benzalkonium chloride were determined for MIC value against Escherichia coli K12 W 3110 in the same manner as in Test Example 3.
For orientation: Broth dilution looks for growth in wells or tubes with falling amounts of substance.

Series [11] has as its system Erythrocyte. Kind of series: Minimum hemolytic activity concentration against erythrocyte. In kind it is cell-based. Conditions: human erythrocyte, 37° C. 1 hour, O.D.540, 50% hemolysis. On the procedure:
Human blood was collected. The sample blood was then mixed with the equal amount of alsebar solution (glucose: 2.05 g; NaCl: 0.42 g; sodium citrate: 0.8 g; citric acid: 0.55 g; pH: 6.1). The mixture was then stored at a temperature of 4° C. Shortly before used for experiment, the alsebar stored blood was subjected to centrifugal separation. Thus, the supernatant liquid and the leukocyte layer on the erythrocyte were removed. To the erythrocyte was then added PBS in an amount of […] that of the erythrocyte to obtain a 50% erythrocyte. 10 μl of the 50% erythrocyte was then mixed with 990 μl of each of chemicals which had been diluted with PBS in amounts varying stepwise. The erythrocyte was acted upon by the chemical at a temperature of 37° C. for 1 hour. The mixture was then subjected to centrifugal separation. The supernatant liquid was collected for the measurement of the optical density at 540 nm (O.D.540). Separately, the foregoing procedure was followed except that no chemicals were used to prepare a 0% hemolytic control. The foregoing procedure was followed except that Milliq water was used instead of PBS to prepare a 100% hemolytic control. For the minimum hemolytic activity concentration of chemical, the minimum concentration at which the hemolytic concentration is […] was determined.

Series [12] has as its system rat. The series is described as follows: Oral toxicity test on rat (LD50). In kind it is in vivo. On the procedure:
The quaternary ammonium salt of the invention is a compound having an extremely high safety, i.e., LD50 (rat) of not smaller than 2,000 mg/kg in oral toxicity test on rat.
The sample 4BAMP-6C thus obtained was then determined for oral toxicity (LD50: rat). The results were greater than 2,000 mg/kg.

For series [13], the system named is Escherichia coli K12 W 3110. The series is described as follows: MIC by agar plate dilution method. It counts as cell-based. The conditions noted are these: E. coli, 37° C. 24 hours. On the procedure:
(§4) MIC value was determined by an agar plate dilution method according to the Law of Japanese Society of Chemotherapy. In some detail, a bacteria solution in stationary state which had been adjusted with a nutrient broth such that the concentration of bacterial suspension reached 10^6 cell/ml was added to agar culture media containing chemical solutions having concentrations which vary in two stages where it was then allowed to stand at a temperature of 37° C. for 24 hours for culture. The bacteria solution was then examined to see if the proliferation of bacteria occurred. Thus, MIC was determined.
(§5) The following three kinds of bacteria were used as sample bacteria:
Escherichia coliK12 W 3110 (E. coli);

Series [14] concerns Pseudomonas aeruginosa ATCC27583. The series is described as follows: MIC by agar plate dilution method. It counts as cell-based. Conditions: P. aeruginosa, 37° C. 24 hours. On the procedure:
as §4, §5
Pseudomonas aeruginosa ATCC27583 (P. auruginosa); and […]

For series [15], the system named is Staphylococcus aureus IFO 12732. Kind of series: MIC by agar plate dilution method. In kind it is cell-based. Conditions: S. aureus, 37° C. 24 hours. On the procedure:
as §4, §5
Staphylococcus aureus IFO 12732 (S. aureus)

In series [16] the test system is Aspergillus niger IFO 6431. The series is described as follows: Minimum development inhibiting concentration (MIC) against fungi. It counts as cell-based. Conditions: A. niger; spore solution, 27° C. 1 week. On the procedure: (§6) A sample fungus which had been pre-cultured was diluted with a wetting agent-containing sterilized water according to an ordinary broth dilution method to prepare a spore solution. 1 ml of the spore solution was then mixed with 1 ml of each of chemical solutions having concentrations which vary stepwise. The mixture was then cultured at a temperature of 27° C. in an incubator for 1 week. The culture was then examined for turbidity to see if the proliferation of fungus occurred. The minimum concentration at which no turbidity occurs was defined to be MIC.
(§7) Aspergillus niger IFO 6431 (A. niger) and Candida albicans ATCC10231 (C. albicans) were used as sample microorganisms.

Series [17] deals with Candida albicans ATCC10231. The series is described as above. In kind it is cell-based. Conditions: C. albicans; spore solution, 27° C. 1 week. On the procedure: as §6, §7

“1,4-bis(N,N-dihexyl-N-methylammoniomethyl)-2,3,5,6-tetramethylphenylene dichloride [BAMD-6]”: the MBC in series [1] is reported as less than 2 ppm; in series [2], less than 2 ppm; in series [3] it was less than 2 ppm; in [4] it was 4 ppm; in series [5] it was less than 2 ppm; in [6] it was less than 2 ppm. Moreover, the MBC in series [7] was 4 ppm; in series [8], less than 2 ppm; in [9], less than 2 ppm. For the same substance, the “MIC Escherichia coli K12 W 3110” value in [10] was 1 ppm. Also, in series [11], the “Minimum hemolytic activity concentration Erythrocyte” value amounted to 400 ppm. The “oral toxicity LD50” value in series [12] was “greater than 2,000 mg/kg”.

Consider “1,4-bis(N,N-dihexyl-N-methylammoniomethyl)phenylene di-p-toluenesulfonate [Example 4BAMP-6S]”, for which the MBC in series [1] is on record as 4 ppm; in [2] it was less than 2 ppm; in [3], 4 ppm; in [4], 8 ppm; in series [5] it was less than 2 ppm; in series [6], less than 2 ppm. Moreover, the MBC is 8 ppm in [7], less than 2 ppm in series [8] and less than 2 ppm in series [9]. For the same substance, in [10], the “MIC Escherichia coli K12 W 3110” value came out at 2 ppm. Besides, the “oral toxicity LD50” value in series [12] is given as “greater than 2,000 mg/kg”.

Take “1,4-bis(N,N-dipentyl-N-methylammoniomethyl)phenylene dichloride [Example 4BAMP-5C]”: the MIC in series [13] is reported as 16 ppm; in [14], 4 ppm; in [15], less than 2 ppm; in [16], 16 ppm; in [17], 8 ppm. Besides, the “Minimum hemolytic activity concentration Erythrocyte” value in [11] was 1,600 ppm.

Consider “1,4-bis(N-octyl-N-hexyl-N-methylammoniomethyl)phenylene dibromide [4BAMP-6, 8B]”, for which the MIC in series [13] is reported as 8 ppm; in [14], less than 2 ppm; in series [15], less than 2 ppm; in [16], 8 ppm; in [17], less than 2 ppm.
